Test [1] addresses rat TAAR1 (Rattus norvegicus (Rat), UniProt Q923Y9). Kind of test: Radioligand binding assay on rat TAAR1. Conditions: read-out: Ki(μM) rat; rat TAAR1, HEK-293 membranes, second value of cell pair mouse/rat.
Protocol: Membrane Preparation and Radioligand Binding.
HEK-293 cells stably expressing rat TAAR1 were maintained at 37° C. and 5% CO2 in DMEM high glucose medium, containing fetal calf serum (10%, heat inactivated for 30 min at 56° C.), penicillin/streptomycin (1%), and 375 μg/ml geneticin (Gibco). Cells were released from culture flasks using trypsin/EDTA, harvested, washed twice with ice-cold PBS (without Ca^2+ and Mg^2+), pelleted at 1,000 rpm for 5 min at 4° C., frozen and stored at −80° C. Frozen pellets were suspended in 20 ml HEPES-NaOH (20 mM, pH 7.4) containing 10 mM EDTA and homogenized with a Polytron (PT 6000, Kinematica) at 14,000 rpm for 20 s. The homogenate was centrifuged at 48,000×g for 30 min at 4° C. Subsequently, the supernatant was removed and discarded, and the pellet resuspended in 20 ml HEPES-NaOH (20 mM, pH 7.4) containing 0.1 mM EDTA using the Polytron (20 s at 14,000 rpm). This procedure was repeated and the final pellet resuspended in HEPES-NaOH containing 0.1 mM EDTA and homogenized using the Polytron. Typically, aliquots of 2 ml membrane portions were stored at −80° C. With each new membrane batch the dissociation constant (Kd) was determined via a saturation curve. […] Nonspecific binding was defined as the amount of [H]—(S)-4-[(ethyl-phenyl-amino)-methyl]-4,5-dihydro-oxazol-2-ylamine bound in the presence of 10 M unlabeled ligand. All compounds were tested at a broad range of concentrations (10 pM to 10 μM) in duplicates. […] The 96 deep well plates were incubated for 1 hr at 4° C. Incubations were terminated by rapid filtration through Unifilter-96 plates (Packard Instrument Company) and glass filters GF/C (Perkin Elmer) presoaked for 1 hr in polyethylenimine (0.3%) and washed 3 times with 1 ml of cold binding buffer. After addition of 45 μl of Microscint 40 (PerkinElmer) the Unifilter-96 plate was sealed and after 1 hr the radioactivity counted using a TopCount Microplate Scintillation Counter (Packard Instrument Company).
In test [2] the target is mouse TAAR1 (Mus musculus (Mouse), UniProt Q923Y8). Kind of test: Radioligand binding assay on mouse TAAR1.
mouse TAAR1, sequence (Q923Y8 whole entry): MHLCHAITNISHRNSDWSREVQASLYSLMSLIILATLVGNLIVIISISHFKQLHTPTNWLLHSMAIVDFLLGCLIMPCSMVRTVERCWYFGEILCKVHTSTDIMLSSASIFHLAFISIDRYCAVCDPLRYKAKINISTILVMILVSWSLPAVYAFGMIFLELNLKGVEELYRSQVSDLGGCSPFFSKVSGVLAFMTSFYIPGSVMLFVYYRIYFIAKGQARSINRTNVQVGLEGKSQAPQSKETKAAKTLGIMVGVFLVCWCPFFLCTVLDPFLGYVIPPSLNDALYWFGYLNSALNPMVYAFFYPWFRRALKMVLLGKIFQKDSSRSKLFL

rat TAAR1, sequence (Q923Y9 whole entry): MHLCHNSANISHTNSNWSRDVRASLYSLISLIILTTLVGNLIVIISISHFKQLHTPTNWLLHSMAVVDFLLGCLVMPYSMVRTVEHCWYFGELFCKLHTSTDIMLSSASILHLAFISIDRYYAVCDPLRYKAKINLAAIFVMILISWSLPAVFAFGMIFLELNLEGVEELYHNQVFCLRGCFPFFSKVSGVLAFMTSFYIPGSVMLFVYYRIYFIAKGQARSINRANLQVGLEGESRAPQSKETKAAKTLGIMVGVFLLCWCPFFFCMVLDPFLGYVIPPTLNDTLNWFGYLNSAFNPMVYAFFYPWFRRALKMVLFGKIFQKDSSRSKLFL

Regarding `FC(F)(c1ccc(Br)cc1)C1CNC1` [Example 49, 3-[(4-bromophenyl)-difluoro-methyl]azetidine], the Ki in test [1] was determined as 0.291 µM; in test [2], 1390 nM.
In the same order, the values of `O=C(Nc1ccc(CC2(F)CNC2)cc1)Nc1ccc(C(F)(F)F)cc1` [Example 105, 1-[4-[(3-fluoroazetidin-3-yl)methyl]phenyl]-3-[4-(trifluoromethyl)phenyl]urea] are 0.0016 µM and 1.9 nM.
On the same counts, the results for `O=C(Nc1ccc(OC2CNC2)c(F)c1)c1cnc(C(F)(F)F)nc1` [Example 26, N-[4-(azetidin-3-yloxy)-3-fluoro-phenyl]-2-(trifluoromethyl)pyrimidine-5-carboxamide] are 0.0238 µM and 16.1 nM.
Regarding `O=C(Nc1ccc(NC2CNC2)cc1)c1ccnc(C(F)(F)F)c1` [Example 3, N-[4-(azetidin-3-ylamino)phenyl]-2-(trifluoromethyl)pyridine-4-carboxamide], the Ki is 0.66 µM in test [1] and 77.7 nM in test [2].
`O=C(Nc1ccc(OC2CNC2)cc1)c1[nH]nc(C(F)(F)F)c1Cl` [Example 40, N-[4-(azetidin-3-yloxy)phenyl]-4-chloro-3-(trifluoromethyl)-1H-pyrazole-5-carboxamide]: the figures for the Ki in test [1] and in test [2] were 0.0142 µM and 2.8 nM, respectively.
Regarding `O=C(Nc1ccc(SC2CNC2)cc1)c1cnc(C2CC2)nc1` [Example 44, N-[4-(azetidin-3-ylsulfanyl)phenyl]-2-cyclopropyl-pyrimidine-5-carboxamide], the Ki was 0.165 µM in test [1] and 8.5 nM in test [2].
In the same order, the values of `O=C(Nc1ccc(OC2CNC2)cc1)Nc1cccc(Cl)c1` [Example 109, 1-[4-(azetidin-3-yloxy)phenyl]-3-(3-chlorophenyl)urea] are 0.003 µM and 4.6 nM.
For the compound `CO[C@H]1CN[C@@H]1Cc1ccccc1` [Example 101, (2R,3S)-2-benzyl-3-methoxyazetidine], the results for the Ki in test [1] and in test [2] were 2.04 µM and 2610 nM, respectively.
In the same order, the values of `Brc1ccc(C=C2CNC2)cc1` [Example 50, 3-[(4-bromophenyl)methylene]azetidine] are 0.0998 µM and 793 nM.
For the compound `COc1cc(C(=O)Nc2ccc(C[C@@H]3NC[C@@H]3F)cc2)ccn1` [Example 127, N-(4-(((2S,3S)-3-fluoroazetidin-2-yl)methyl)phenyl)-2-methoxyisonicotinamide], the figures for the Ki in test [1] and in test [2] were 0.133 µM and 3.8 nM, respectively.
In the same order, the values of `CC(C)(C)c1n[nH]c(C(=O)Nc2ccc(OC3CNC3)cc2)c1Cl` [Example 32, N-[4-(azetidin-3-yloxy)phenyl]-3-tert-butyl-4-chloro-1H-pyrazole-5-carboxamide] are 0.0145 µM and 13.4 nM.
On the same counts, the results for `COC1(Cc2ccc(NC(=O)c3ccc(Cl)nc3)cc2)CNC1` [Example 73, 6-chloro-N-[4-[(3-methoxyazetidin-3-yl)methyl]phenyl]pyridine-3-carboxamide] are 0.0543 µM and 13.6 nM.
On the same counts, the results for `Cc1[nH]nc(C(=O)Nc2ccc(OC3CNC3)cc2)c1Br` [Example 48, N-[4-(azetidin-3-yloxy)phenyl]-4-bromo-3-methyl-1H-pyrazole-5-carboxamide] are 0.0943 µM and 14.3 nM.
As for `Cc1cc(C(=O)Nc2ccc(C[C@@H]3NC[C@@H]3F)cc2)nc(C(F)(F)F)n1` [Example 126, N-(4-(((2S,3S)-3-fluoroazetidin-2-yl)methyl)phenyl)-6-methyl-2-(trifluoromethyl)pyrimidine-4-carboxamide], the Ki in test [1] came to 0.0224 µM; in test [2] it was 22.9 nM.
`CCc1n[nH]c(C(=O)Nc2ccc(OC3CNC3)cc2)c1Cl` [Example 41, N-[4-(azetidin-3-yloxy)phenyl]-4-chloro-3-ethyl-1H-pyrazole-5-carboxamide]: the inhibitory constant (Ki) in test [1] worked out at 0.0392 µM; in test [2] it was 3.5 nM.
The compound `COc1ccc(C[C@H]2NC[C@H]2F)cc1` [Example 98, (2R,3R)-3-fluoro-2-(4-methoxybenzyl)azetidine] returned a Ki in test [2] of 200 nM.
For `F[C@@H]1CN[C@H]1Cc1ccccc1` [Example 91, (2S,3R)-2-benzyl-3-fluoroazetidine], the inhibition constant (Ki) in test [1] was found to be 0.149 µM; in test [2] it was 1070 nM.
Consider `O=C(Nc1ccc(SC2CNC2)cc1)Nc1ccc(C(F)(F)F)cc1` [Example 110, 1-[4-(azetidin-3-ylsulfanyl)phenyl]-3-[4-(trifluoromethyl)phenyl]urea], for which the Ki in test [1] came out at 0.0081 µM; in test [2], 13.1 nM.
On to `FC(F)(F)c1nccc(Nc2ccc(OC3CNC3)cc2)n1` [Example 8, N-[4-(azetidin-3-yloxy)phenyl]-2-(trifluoromethyl)pyrimidin-4-amine], for which the Ki in test [1] is 0.165 µM; in test [2], 55 nM.
On the same counts, the results for `Cn1nc(C(F)(F)F)cc1C(=O)Nc1ccc(OC2CNC2)cc1` [Example 17, N-[4-(azetidin-3-yloxy)phenyl]-2-methyl-5-(trifluoromethyl)pyrazole-3-carboxamide] are 0.0969 µM and 72.9 nM.
On the same counts, the results for `O=C(Nc1ccc(OC2CNC2)c(F)c1)c1[nH]nc(C2CC2)c1Cl` [Example 25, N-[4-(azetidin-3-yloxy)-3-fluoro-phenyl]-4-chloro-3-cyclopropyl-1H-pyrazole-5-carboxamide] are 0.0113 µM and 3 nM.
Compound `O=C(Nc1ccc(OC2CNC2)c(F)c1)c1cnc(C2CC2)nc1` [Example 27, N-[4-(azetidin-3-yloxy)-3-fluoro-phenyl]-2-cyclopropyl-pyrimidine-5-carboxamide] yielded a Ki in test [2] of 15.5 nM.
As for `O=C(Nc1ccc(OC2CNC2)cc1F)c1cnc(C(F)(F)F)nc1` [Example 39, N-[4-(azetidin-3-yloxy)-2-fluoro-phenyl]-2-(trifluoromethyl)pyrimidine-5-carboxamide], the Ki in test [1] is 0.476 µM; in test [2], 62.8 nM.
On the same counts, the results for `COC1(Cc2ccc(NC(=O)c3cnc(C(F)(F)F)nc3)cc2)CNC1` [Example 74, N-[4-[(3-methoxyazetidin-3-yl)methyl]phenyl]-2-(trifluoromethyl)pyrimidine-5-carboxamide] are 0.0417 µM and 52.9 nM.
Compound `O=C(Nc1ccc(OC2CNC2)cc1)c1ccnc(C(F)(F)F)c1` [Example 5, N-(4-(azetidin-3-yloxy)phenyl)-2-(trifluoromethyl)isonicotinamide] returned a Ki in test [2] of 12.3 nM.
Still for that read-out and setting: the result for `COc1ccc(C[C@H]2NC[C@@H]2F)cc1` [Example 99, (2R,3S)-3-fluoro-2-(4-methoxybenzyl)azetidine] reads 200 nM; that for `COc1cc(C(=O)Nc2ccc(OC3CNC3)cc2)cc(C#N)n1` [Example 7, N-(4-(azetidin-3-yloxy)phenyl)-2-cyano-6-methoxyisonicotinamide], 5.6 nM.
Same read-out and setting: the result for `O=C(Nc1ccc(OC2CNC2)cc1)c1cnc(C(F)(F)F)nc1` [Example 6, N-(4-(azetidin-3-yloxy)phenyl)-2-(trifluoromethyl)pyrimidine-5-carboxamide] reads 19.5 nM; that for `COc1ccc(C[C@@H]2NC[C@@H]2F)cc1` [Example 96, (2S,3S)-3-fluoro-2-(4-methoxybenzyl)azetidine], 2760 nM.
Same read-out and setting: under `COc1ccc(C[C@@H]2NC[C@H]2F)cc1` [Example 97, (2S,3R)-3-fluoro-2-(4-methoxybenzyl)azetidine] stands 1630 nM.

A word on the Ki: it is the dissociation constant of the complex between target and ligand, obtained from inhibition or displacement.
